From patent US5225528A, “Cyclic hexapeptide oxytocin antagonists” (priority 1990, dated 1993)
Read-outs that look alike come from different tables or passages of the source. Numbered stars: 1 amine (or outer) side, 2 acyl side, 3 side chain; on linkers, the order of the positions; unused ones are H or OH. Square brackets hold non-standard residues; d marks the D form. Peptide text beside a SMILES is read from it. * marks the point of attachment. dPip(4-aza,4-Cbz) = O=C(O)[C@H]1CN(C(=O)OCc2ccccc2)CCN1; X2 = O=C(OCc1ccccc1)N1CCN([*:1])[C@H](C(=O)[*:2])C1; X5 = CC(C)(C)OC(=O)CN1CCN([*:1])[C@H](C(=O)[*:2])C1; dPiz(1,6-dehydro) = O=C(O)[C@H]1CCC=NN1; d2Nal = N[C@H](Cc1ccc2ccccc2c1)C(=O)O; dNMehPhe = CN[C@H](CCc1ccccc1)C(=O)O; d(hPhe) = N[C@H](CCc1ccccc1)C(=O)O; NMeI = CC[C@H](C)[C@H](NC)C(=O)O; Pip(4-aza) = O=C(O)[C@@H]1CNCCN1; dNMeF = CN[C@H](Cc1ccccc1)C(=O)O; X7 = C[N+]12CCC(CC1)C(C(=O)*)C2; Pip = O=C(O)[C@@H]1CCCCN1; dPip = O=C(O)[C@H]1CCCCN1; dNMeA = CN[C@H](C)C(=O)O; Boc = CC(C)(C)OC(=O)*; OtBu = CC(C)(C)O*

How the values were obtained:
uterine OT receptors = target: T1, uterine OT receptors (Rattus norvegicus, UniProt P70536); assay: [^3 H]OT binding to uterine OT receptors, crude membrane preparation of uteri from DES-treated rats; details: for IC50: rat uterus membranes, 1 nM [^3 H]OT, read-out: Receptor Binding Results IC50 (nM) [^3 H]OT; for inhibition at 0.01 µM: @ 10 (nM); for inhibition at 0.1 µM: @ 100 (nM)
T1 construct: from tissue; host or cells: uterus of DES-treated rats, crude membranes
T1 sequence (P70536 1-388): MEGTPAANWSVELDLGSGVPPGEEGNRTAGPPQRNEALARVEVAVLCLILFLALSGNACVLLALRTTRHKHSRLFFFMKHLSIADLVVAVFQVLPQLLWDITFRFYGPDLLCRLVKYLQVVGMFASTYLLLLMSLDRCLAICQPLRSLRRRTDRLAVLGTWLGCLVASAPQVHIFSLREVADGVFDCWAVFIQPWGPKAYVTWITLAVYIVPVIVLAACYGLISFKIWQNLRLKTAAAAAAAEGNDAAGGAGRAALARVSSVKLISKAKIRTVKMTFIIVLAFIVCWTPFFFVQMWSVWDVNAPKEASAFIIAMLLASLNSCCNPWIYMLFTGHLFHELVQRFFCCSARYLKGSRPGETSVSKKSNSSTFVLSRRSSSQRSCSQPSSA
Description: Competition studies were conducted at equilibrium (60 minutes; 22° C.) using 1 nM [^3 H]OT in the following assay buffer: 50 mM Tris-HCl, 5 mM MgCl2, and 0.1% BSA, pH 7.4.

AVP-V1 sites = target: T2, AVP-V1 sites (Rattus norvegicus, UniProt P30560); assay: [^3 H]AVP binding to crude membrane preparation of male rat liver (AVP-V1 sites)
T2 construct: crude membrane preparation of male rat liver (AVP-V1 sites); from tissue; host or cells: male rat liver, crude membranes
T2 sequence (P30560 whole entry): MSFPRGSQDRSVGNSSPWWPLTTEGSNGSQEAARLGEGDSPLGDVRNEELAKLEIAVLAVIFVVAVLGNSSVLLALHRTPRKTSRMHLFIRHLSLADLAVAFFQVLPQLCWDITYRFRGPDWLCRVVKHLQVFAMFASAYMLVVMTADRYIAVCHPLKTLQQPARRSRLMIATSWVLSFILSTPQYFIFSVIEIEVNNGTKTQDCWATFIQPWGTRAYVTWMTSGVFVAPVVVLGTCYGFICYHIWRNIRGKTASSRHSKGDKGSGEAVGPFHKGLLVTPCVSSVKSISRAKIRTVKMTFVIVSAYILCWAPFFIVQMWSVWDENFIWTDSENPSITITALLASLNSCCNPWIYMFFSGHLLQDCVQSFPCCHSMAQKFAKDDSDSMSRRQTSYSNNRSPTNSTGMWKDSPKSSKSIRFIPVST
Description: (§1) Nonspecific binding (5-10% of the total binding) was determined using 10 μM unlabeled AVP, and the binding reaction was terminated by filtration as described above for the [^3 H]OT binding assay.

AVP-V2 sites = target: T3, AVP-V2 sites (Rattus norvegicus, UniProt Q00788); assay: [^3 H]AVP binding to crude membrane preparation of male rat kidney medulla (AVP-V2 sites); details: for inhibition at 1 µM: 0.5 h, @ 1,000 (nM), read-out: [^3 H]-AVP-V2: percent inhibition of radioligand at the given concentration
T3 construct: male rat liver (AVP-V1 sites) or kidney medulla (AVP-V2 sites); from tissue; host or cells: male rat kidney medulla, crude membranes
T3 sequence (Q00788 whole entry): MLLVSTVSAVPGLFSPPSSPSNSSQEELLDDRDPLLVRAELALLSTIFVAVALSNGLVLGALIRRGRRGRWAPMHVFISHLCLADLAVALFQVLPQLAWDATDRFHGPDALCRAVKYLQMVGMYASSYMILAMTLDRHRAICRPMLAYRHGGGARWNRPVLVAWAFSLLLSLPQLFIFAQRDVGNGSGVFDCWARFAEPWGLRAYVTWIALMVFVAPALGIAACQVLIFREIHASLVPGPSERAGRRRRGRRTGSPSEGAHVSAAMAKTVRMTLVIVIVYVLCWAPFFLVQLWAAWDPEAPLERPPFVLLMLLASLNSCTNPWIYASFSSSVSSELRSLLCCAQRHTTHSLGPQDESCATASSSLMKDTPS
Description: as §1

[1] = read-out: Receptor Binding Results IC50 (nM) [^3 H]-AVP-V1
[2] = 1 h, read-out: [^3 H]OT: percent inhibition of radioligand at the given concentration
[3] = Receptor Binding Results IC50 (nM) [^3 H]-AVP-V1
[4] = read-out: Receptor Binding Results IC50 (nM) [^3 H]-AVP-V2
[5] = rat kidney medulla membranes, 2 nM [^3 H]AVP, read-out: Receptor Binding Results IC50 (nM) [^3 H]-AVP-V2

Compound	IC50 (uterine OT receptors)	IC50 (AVP-V1 sites; [1])	IC50 (AVP-V1 sites; [3])	IC50 (AVP-V2 sites; [4])	IC50 (AVP-V2 sites; [5])	further results
CC[C@H](C)[C@@H]1NC(=O)[C@@H](Cc2ccc3ccccc3c2)NC(=O)[C@@H]2CCCN2C(=O)[C@@H](Cc2ccccc2)N(C)C(=O)[C@H](CCCCNC(=O)C2C[N+]3(C)CCC2CC3)NC(=O)[C@H]2CCCCN2C1=O (stereo partly drawn) [Example 151, c-[D-2-Napthylalanyl-L-isoleucyl-D-pipecolyl-L-[N-(1-methyl-quinuclidinium-3-yl-carbonyl)]lysyl-D-(N-methyl)phenylalanyl-L-prolyl]] (cyclo(I[dPip]K(X7)[dNMeF]P[d2Nal]))	10 nM	390 nM	–	–	–	IC50 (AVP-V2 sites): 82 nM
CC[C@H](C)[C@@H]1NC(=O)[C@@H](Cc2ccc3ccccc3c2)NC(=O)[C@@H]2CCCN2C(=O)[C@@H](Cc2c[nH]cn2)NC(=O)[C@@H]2CN(C(=O)OCc3ccccc3)CCN2C(=O)[C@H]2CCCCN2C1=O [Example 158, c-[D-2-Naphthylalanyl-L-isoleucyl-D-pipecolyl-L-piperazin-2-yl-(4-carbobenzyloxy)-D-histidyl-L-prolyl]] (cyclo(I[dPip][X2][dH]P[d2Nal]))	–	–	> 1000 nM	–	–	inhibition at 0.01 µM (uterine OT receptors; [2]): 60%; inhibition at 1 µM (AVP-V2 sites): 68%
CC[C@H](C)[C@@H]1NC(=O)[C@@H](Cc2ccc3ccccc3c2)NC(=O)[C@@H]2CCCN2C(=O)[C@@H](Cc2c[nH]cn2)NC(=O)[C@@H]2CNCCN2C(=O)[C@H]2CCCCN2C1=O [Example 159, c-[D-2-Naphthylalanyl-L-isoleucyl-D-pipecolyl-L-piperazin-2-yl-D-histidyl-L-prolyl]] (cyclo(I[dPip][Pip(4-aza)][dH]P[d2Nal]))	1.8 nM	4650 nM	–	690 nM	–	–
CC[C@H](C)[C@@H]1NC(=O)[C@@H](Cc2ccc3ccccc3c2)NC(=O)[C@@H]2CCCN2C(=O)[C@@H](Cc2c[nH]cn2)NC(=O)[C@H]2CN(C(=O)OCc3ccccc3)CCN2C(=O)[C@H]2CCCCN2C1=O [Example 160, c-[D-2-Naphthylalanyl-L-isoleucyl-D-pipecolyl-D-piperazin-2-yl-(4-carbobenzyloxy)-D-hystidyl-L-prolyl]] (cyclo(I[dPip][dPip(4-aza,4-Cbz)][dH]P[d2Nal]))	–	–	> 1000 nM	–	–	inhibition at 0.01 µM (uterine OT receptors; [2]): 53%; inhibition at 1 µM (AVP-V2 sites): 66%
CC[C@H](C)[C@@H]1NC(=O)[C@@H](Cc2c[nH]c3ccccc23)NC(=O)[C@@H]2CCCN2C(=O)[C@@H](Cc2c[nH]c3ccccc23)NC(=O)[C@@H]2CN(CC(=O)OC(C)(C)C)CCN2C(=O)[C@H]2CCCCN2C1=O [Example 162, c-[D-Tryptophanyl-L-isoleucinyl-D-pipecolyl-L-piperazin-2-yl(4-t-butylacetyl)-D-tryptophanyl-L-prolyl]] (cyclo([dW]I[dPip][X5][dW]P))	–	–	> 10000 nM	–	10000 nM	inhibition at 0.1 µM (uterine OT receptors; [2]): 54%
CC[C@H](C)[C@@H]1NC(=O)[C@@H](Cc2ccccc2)NC(=O)[C@@H]2CCCN2C(=O)[C@@H](Cc2ccccc2)NC(=O)[C@@H]2CNCCN2C(=O)[C@H]2CCCN2C1=O [Example 164, c-[D-Phenylalanyl-L-isoleucinyl-D-prolyl-L-piperazin-2-yl-D-phenylalanyl-L-prolyl]] (cyclo(I[dP][Pip(4-aza)][dF]P[dF]))	1300 nM	–	10000 nM	–	> 10000 nM	–
CC[C@H](C)[C@@H]1NC(=O)[C@@H](CCc2ccccc2)NC(=O)[C@@H]2CCCN2C(=O)[C@@H](Cc2ccccc2)N(C)C(=O)[C@@H]2CCCCN2C(=O)[C@H]2CCCCN2C1=O [Example 165, c-[D-Homophenylalanyl-L-isoleucyl-D-pipecolyl-L-pipecolyl-N-Me-D-phenylalanyl-L-prolyl]] (cyclo(I[dPip][Pip][dNMeF]P[d(hPhe)]))	150 nM	6600 nM	–	2600 nM	–	–
CC[C@H](C)[C@H]1C(=O)N2CCCC[C@@H]2C(=O)N2CCCC[C@H]2C(=O)N(C)[C@H](Cc2ccccc2)C(=O)N2CCC[C@H]2C(=O)N(C)[C@H](CCc2ccccc2)C(=O)N1C [Example 166] (cyclo([NMeI][dPip][Pip][dNMeF]P[dNMehPhe]))	23000 nM	> 3000 nM	–	> 3000 nM	–	–
CC[C@H](C)[C@@H]1NC(=O)[C@@H](C)N(C)C(=O)[C@@H]2CCCN2C(=O)[C@@H](Cc2ccccc2)N(C)C(=O)[C@@H]2CCCCN2C(=O)[C@H]2CCCCN2C1=O [Example 167, c-[N-Me-D-Alanyl-L-isoleucyl-D-pipecolyl-L-pipecolyl-N-Me-D-phenylalanyl-L-prolyl]] (cyclo(I[dPip][Pip][dNMeF]P[dNMeA]))	–	–	> 10000 nM	–	> 10000 nM	inhibition at 1 µM (uterine OT receptors; 1 h, @ 1,000 (nM), read-out: [^3 H]OT: percent inhibition of radioligand at the given concentration): 5%
CC[C@H](C)[C@@H]1NC(=O)[C@@H](Cc2c[nH]c3ccccc23)NC(=O)[C@@H]2CCCN2C(=O)[C@@H](Cc2ccccc2)N(C)C(=O)[C@@H]2CN(C(=O)OCc3ccccc3)CCN2C(=O)[C@H]2CCC=NN2C1=O [Example 168, c-[D-Tryptophanyl-L-isoleucinyl-D-Δ-piperazyl-L-piperazin-2-yl(4-Cbz)-N-Me-D-phenylalanyl-L-prolyl]] (cyclo(I[dPiz(1,6-dehydro)][X2][dNMeF]P[dW]))	34 nM	–	10000 nM	–	–	inhibition at 1 µM (AVP-V2 sites): 54%
CC[C@H](C)[C@@H]1NC(=O)[C@@H](Cc2ccc3ccccc3c2)NC(=O)[C@@H]2CCCN2C(=O)[C@@H](Cc2ccccc2)N(C)C(=O)[C@@H]2CN(C(=O)OCc3ccccc3)CCN2C(=O)[C@H]2CCCCN2C1=O [Example 169, c-[D-2-Naphthylalanyl-L-isoleucinyl-D-pipecolyl-L-piperazin-2-yl(4-Cbz)-D-(Nα-methyl)-phenylalanyl-L-prolyl]] (cyclo(I[dPip][X2][dNMeF]P[d2Nal]))	–	–	> 10000 nM	–	10000 nM	inhibition at 0.01 µM (uterine OT receptors; [2]): 74%
CC[C@H](C)[C@@H]1NC(=O)[C@@H](Cc2c[nH]c3ccccc23)NC(=O)[C@@H]2CCCN2C(=O)[C@@H](Cc2ccccc2)N(C)C(=O)[C@@H]2CNCCN2C(=O)[C@H]2CCC=NN2C1=O [Example 170, c-[D-Tryptophanyl-L-isoleucinyl-D-Δ-piperazyl-L-piperazin-2-yl-N^α -Me-D-phenylalanyl-L-prolyl]] (cyclo(I[dPiz(1,6-dehydro)][Pip(4-aza)][dNMeF]P[dW]))	3.1 nM	6850 nM	–	175 nM	–	–
CC[C@H](C)[C@@H]1NC(=O)[C@@H](Cc2ccc3ccccc3c2)NC(=O)[C@@H]2CCCN2C(=O)[C@@H](Cc2ccccc2)N(C)C(=O)[C@@H]2CNCCN2C(=O)[C@H]2CCCCN2C1=O [Example 171, c-[D-2-Naphthylalanyl-L-isoleucinyl-D-pipecolyl-L-piperazin-2-yl-D-(N^α -methyl)phenylalanyl-L-prolyl]] (cyclo(I[dPip][Pip(4-aza)][dNMeF]P[d2Nal]))	3.9 nM	15000 nM	–	335 nM	–	–
CC[C@H](C)[C@@H]1NC(=O)[C@@H](Cc2c[nH]c3ccccc23)NC(=O)[C@@H]2CCCN2C(=O)[C@@H](CC(=O)OC(C)(C)C)NC(=O)[C@@H]2CCCCN2C(=O)[C@H]2CCCCN2C1=O [Example 172, c-[D-Tryptophanyl-L-isoleucinyl-D-pipecolyl-L-pipecolyl-D-(β-t-butyl)aspartyl-L-prolyl]] (cyclo(I[dPip][Pip][dD](OtBu)P[dW]))	–	–	> 10000 nM	–	> 10000 nM	inhibition at 0.1 µM (uterine OT receptors; [2]): 20%
CC[C@H](C)[C@@H]1NC(=O)[C@@H](Cc2ccccc2)NC(=O)[C@@H]2CCCN2C(=O)[C@@H](Cc2ccccc2)N(C)C(=O)[C@H](CCCCNC(=O)OC(C)(C)C)NC(=O)[C@H]2CCC=NN2C1=O [Example 173, C-[D-Phenylalanyl-L-isoleucyl-D-Δ-piperazyl-L-(N^ε -t-Butyloxycarbonyl)-Lysl-M-Me-D-phenylalanyl-L-prolyl]] (cyclo(I[dPiz(1,6-dehydro)]K(Boc)[dNMeF]P[dF]))	71 nM	1500 nM	–	2800 nM	–	–
CC[C@H](C)[C@@H]1NC(=O)[C@@H](Cc2ccccc2)NC(=O)[C@@H]2CCCN2C(=O)[C@@H](Cc2ccccc2)N(C)C(=O)[C@H](CCCCN)NC(=O)[C@H]2CCC=NN2C1=O [Example 174, c-[D-Phenylalanyl-L-isoleucyl-D-Δ-piperazyl-L-Lysyl-N-Me-D-phenylalanyl-L-prolyl]] (cyclo(I[dPiz(1,6-dehydro)]K[dNMeF]P[dF]))	21 nM	610 nM	–	570 nM	–	–
